The results in this text go back to the NIST ThermoML archive (doi:10.1016/j.fluid.2006.07.005).

The structures appear in SMILES notation. ± gives the expanded uncertainty stated by the source.

For data set [1] the following is noted: DTA.
A short description of data set [2]: Molar enthalpy of transition or fusion. Conditions: DSC.

As for `CCCCCCOCn1cc[n+](COCCCCCC)c1.F[B-](F)(F)F`, the results for the Triple point temperature in data set [1] (Crystal 1), in data set [1] (Crystal 2) and in data set [1] (Crystal 3) were 309.5 ± 6.2 K, 243.6 ± 4.9 K and 142.6 ± 2.9 K, respectively. Moreover, the “Molar enthalpy of transition or fusion” value in data set [2] (Crystal 1) came to 3.06 ± 0.12 kcal/mol; in data set [2] (Crystal 2) it was 0.167 ± 0.0717 kcal/mol; in data set [2] (Crystal 3), 0.478 ± 0.0717 kcal/mol.

Consider `CCCCCCOCn1cc[n+](COCCCCCC)c1.O=S(=O)([N-]S(=O)(=O)C(F)(F)F)C(F)(F)F`, for which the Triple point temperature in data set [1] (Crystal 1) is 273.8 ± 5.5 K. The Glass transition temperature in data set [1] (Glass) is -81.3 ± 3.9 °C. In addition, in data set [2] (Crystal 1), the “Molar enthalpy of transition or fusion” value turned out to be 3.82 ± 0.12 kcal/mol.
